Reference: patent US9957271B2, “Substituted bicyclic aza-heterocycles and analogues as sirtuin modulators” (GlaxoSmithKline, LLC, priority 2012, dated 2018)
Like-named read-outs stand apart in the source and are kept apart here.

Target: T1, SIRT1 (Homo sapiens, UniProt Q96EB6)
T1 sequence (Q96EB6 1-747): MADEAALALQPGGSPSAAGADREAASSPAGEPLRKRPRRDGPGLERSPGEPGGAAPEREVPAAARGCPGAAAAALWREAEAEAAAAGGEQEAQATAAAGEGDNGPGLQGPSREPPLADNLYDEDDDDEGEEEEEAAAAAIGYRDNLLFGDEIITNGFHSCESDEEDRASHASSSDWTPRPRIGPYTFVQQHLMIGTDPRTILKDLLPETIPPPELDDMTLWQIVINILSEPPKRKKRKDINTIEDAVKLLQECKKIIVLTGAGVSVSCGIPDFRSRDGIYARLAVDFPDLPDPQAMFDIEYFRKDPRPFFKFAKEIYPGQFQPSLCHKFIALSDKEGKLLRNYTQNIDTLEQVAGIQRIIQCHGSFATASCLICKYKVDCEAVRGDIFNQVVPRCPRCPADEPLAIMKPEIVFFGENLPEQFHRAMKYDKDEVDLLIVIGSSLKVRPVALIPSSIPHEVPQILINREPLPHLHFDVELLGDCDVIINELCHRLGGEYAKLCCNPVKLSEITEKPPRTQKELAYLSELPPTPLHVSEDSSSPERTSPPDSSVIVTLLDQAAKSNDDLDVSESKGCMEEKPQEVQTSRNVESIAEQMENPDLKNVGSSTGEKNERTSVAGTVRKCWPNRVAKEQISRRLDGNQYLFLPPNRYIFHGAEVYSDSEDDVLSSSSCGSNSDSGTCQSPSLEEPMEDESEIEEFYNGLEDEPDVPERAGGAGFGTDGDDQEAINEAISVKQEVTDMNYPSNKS
Assay: TAMRA based mass spectrometry assay of SIRT1 activity
Format: biochemical
Conditions: for Emax: read-out: TAMRA % Fold Act
How it was run: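 Recombinant N-terminal His-tagged human SIRT1 (10 nM, E. coli) incubated 25 min at 25 °C with 0.5 μM 5TMR-labelled p53-derived acetyl-peptide and 120 μM βNAD+ in Tris-acetate pH 8 buffer with DTT and 0.05% BSA, compound at varying concentrations. Stopped with formic acid; deacetylated peptide or OAADPR measured by mass spectrometry relative to DMSO controls.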

[1] = concentration of test compound giving 150% activation of SIRT1, TAMRA peptide substrate
[2] = percent maximum fold activation of SIRT1, TAMRA peptide substrate
[3] = TAMRA peptide substrate, concentration giving 150% activation of SIRT1
[4] = TAMRA peptide substrate, percent maximum fold activation
[5] = TAMRA assay, concentration giving 150% activation of SIRT1
[6] = TAMRA assay, percent maximum fold activation

Row | TAMRA EC1.5 (μM) [1] | Emax [2] [%] | TAMRA EC1.5 (μM) [5] | Emax [6] [%] | Structure (SMILES) | other results
1 | – | – | B (EC1.5 1-25 μM) | < 350 | Cc1ccc(NC(=O)c2cnn3ccc(-c4ccccc4OC(F)(F)F)nc23)c(C)n1 [Compound 625] | –
2 | – | – | B (EC1.5 1-25 μM) | < 350 | Cc1nc2ccc(-c3ccccc3C(F)(F)F)nn2c1NC(=O)c1cnccn1 [Compound 376] | –
3 | – | – | A (EC1.5<1 μM) | ≥ 350 | Cc1ccc(NC(=O)c2c(C)nn3ccc(-c4ccccc4C(F)(F)F)nc23)nc1 [Compound 684] | –
4 | – | – | B (EC1.5 1-25 μM) | ≥ 350 | Cc1cc(NC(=O)c2cnc3ccc(-c4ccccc4OCC(O)CO)nn23)ccn1 (centres unmarked) [Compound 370] | –
5 | – | – | B (EC1.5 1-25 μM) | ≥ 350 | Cc1cc(C)c(NC(=O)c2c(C)nn3ccc(-c4ccccc4C(F)(F)F)nc23)cn1 [Compound 708] | –
6 | – | – | B (EC1.5 1-25 μM) | ≥ 350 | Cc1cnc(NC(=O)c2c(C)nn3ccc(-c4ccccc4C(F)(F)F)nc23)c(C)n1 [Compound 753] | –
7 | – | – | B (EC1.5 1-25 μM) | ≥ 350 | N#Cc1ccccc1-c1ccc2ncc(NC(=O)c3ncccn3)n2n1 [Compound 331] | –
8 | – | – | A (EC1.5<1 μM) | ≥ 350 | Cc1cncc(NC(=O)c2cnn3ccc(-c4ccccc4C(F)(F)F)nc23)c1 [Compound 632] | –
9 | – | – | A (EC1.5<1 μM) | ≥ 350 | O=C(Nc1cnc2ccc(-c3ccccc3OC(F)(F)F)nn12)c1cnccn1 [Compound 313] | –
10 | – | – | B (EC1.5 1-25 μM) | < 350 | Cc1nccc(NC(=O)c2cnn3ccc(-c4ccccc4C(F)(F)F)nc23)c1C [Compound 620] | –
11 | – | – | A (EC1.5<1 μM) | ≥ 350 | Cc1nc(NC(=O)c2cnn3ccc(-c4ccccc4OC(F)(F)F)nc23)sc1C [Compound 614] | –
12 | – | – | A (EC1.5<1 μM) | ≥ 350 | COc1ccc(NC(=O)c2cnn3ccc(-c4ccccc4OC(F)(F)F)nc23)nn1 [Compound 635] | –
13 | – | – | B (EC1.5 1-25 μM) | < 350 | O=C(Nc1nccs1)c1cnn2ccc(-c3ccccc3OC(F)(F)F)nc12 [Compound 607] | –
14 | – | – | A (EC1.5<1 μM) | ≥ 350 | Cc1cnc(NC(=O)c2cnn3ccc(-c4ccccc4OC(F)(F)F)nc23)cn1 [Compound 623] | –
15 | – | – | B (EC1.5 1-25 μM) | ≥ 350 | Cc1nc(C(=O)Nc2c(C)nc3ccc(-c4ccccc4C(F)(F)F)nn23)c(C)s1 [Compound 379] | –
16 | – | – | A (EC1.5<1 μM) | ≥ 350 | COc1cc(NC(=O)c2cnn3ccc(-c4ccccc4OC(F)(F)F)nc23)ncn1 [Compound 703] | –
17 | – | – | A (EC1.5<1 μM) | < 350 | Cc1nccc(NC(=O)c2cnn3ccc(-c4ccccc4OC(F)(F)F)nc23)c1C [Compound 613] | –

More lines, now with the values behind:

Row | Structure (SMILES) | TAMRA EC1.5 (μM) [1] | Emax [2] [%] | TAMRA EC1.5 (μM) [5] | Emax [6] [%] | other results
18 | O=C(Nc1cccc(CN2CCOCC2)n1)c1cnc2ccc(-c3cccc(F)c3)nn12 [Compound 28] | A (EC1.5<1 μM) | < 350 | – | – | –
19 | COc1nccnc1NC(=O)c1cnc2c(C)cc(-c3ccccc3C(F)(F)F)nn12 [Compound 595] | – | – | – | – | TAMRA EC1.5 [3]: A (EC1.5<1 μM); Emax [4]: < 350%
20 | O=C(Nc1cccc(N2CCC2)n1)c1nnc2ccc(-c3ccccc3C(F)(F)F)nn12 [Compound 73, N-(6-(azetidin-1-yl)pyridin-2-yl)-6-(2-(trifluoromethyl)phenyl)-[1,2,4]-triazolo[4,3-b]pyridazine-3-carboxamide] | A (EC1.5<1 μM) | < 350 | – | – | –
21 | O=C(Nc1ccccn1)c1cnc2ccc(-c3ccccc3F)nn12 [Compound 137] | B (EC1.5 1-25 μM) | < 350 | – | – | –
22 | O=C(Nc1cnc2ccc(-c3ccccc3C(F)(F)F)nn12)c1cnccn1 [Compound 88] | A (EC1.5<1 μM) | ≥ 350 | – | – | –
23 | O=C(Nc1nccs1)c1cnc2ccc(-c3cccc(OC(F)(F)F)c3)nn12 [Compound 7] | B (EC1.5 1-25 μM) | < 350 | – | – | –
24 | Cc1nc(C(=O)Nc2cnn3ccc(-c4ccccc4C(F)(F)F)nc23)c(C)s1 [Compound 526] | – | – | – | – | TAMRA EC1.5 [3]: A (EC1.5<1 μM); Emax [4]: ≥ 350%
25 | Cc1cc(C)nc(NC(=O)c2cnc3ccc(N4CCC(F)(F)C4)nn23)c1 [Compound 492] | – | – | – | – | TAMRA EC1.5 [3]: B (EC1.5 1-25 μM); Emax [4]: < 350%
26 | Cc1cc(C)nc(NC(=O)c2cnc3ccc(N4CC[C@@H](F)C4)nn23)c1 [Compound 491] | – | – | – | – | TAMRA EC1.5 [3]: B (EC1.5 1-25 μM); Emax [4]: < 350%
27 | O=C(Nc1ccnc(N2CCC2)c1)c1cnc2ccc(-c3c(F)cccc3Cl)nn12 [Compound 165] | B (EC1.5 1-25 μM) | ≥ 350 | – | – | –
28 | O=C(Nc1nc(CN2CCOCC2)cs1)c1cnc2ccc(-c3cccc(C(F)(F)F)c3)nn12 [Compound 6] | A (EC1.5<1 μM) | ≥ 350 | – | – | –
29 | Cc1scnc1C(=O)Nc1cnc2ccc(-c3ccccc3C(F)(F)F)nn12 [Compound 271] | – | – | A (EC1.5<1 μM) | ≥ 350 | –
30 | Cc1c(-c2ccccc2C(F)(F)F)nn2c(NC(=O)c3cccc(OCC(O)CO)n3)cnc2c1C (centres unmarked) [Compound 422, 6-(2,3-dihydroxypropoxy)-N-(7,8-dimethyl-6-(2-(trifluoromethyl)phenyl)imidazo[1,2-b]pyridazin-3-yl)picolinamide] | – | – | – | – | TAMRA EC1.5 [3]: A (EC1.5<1 μM); Emax [4]: ≥ 350%
31 | Cc1cc(OCC(O)CO)nc(NC(=O)c2cnc3ccc(-c4ccccc4F)nn23)n1 (centres unmarked) [Compound 286] | – | – | B (EC1.5 1-25 μM) | < 350 | –
32 | N#Cc1ccccc1-c1ccc2ncc(C(=O)Nc3cccc(CN4CCOCC4)n3)n2n1 [Compound 202] | – | – | B (EC1.5 1-25 μM) | < 350 | –
33 | O=C(Nc1ccnc(OCC(O)CO)c1)c1cnc2ccc(-c3ccccc3Cl)nn12 (centres unmarked) [Compound 283] | – | – | A (EC1.5<1 μM) | < 350 | –

Row | Structure (SMILES) | TAMRA EC1.5 (μM) [1] | Emax [2] [%] | TAMRA EC1.5 (μM) [5] | Emax [6] [%] | other results
34 | Cc1nc(NC(=O)c2cnc3c(C)cc(-c4ccccc4C(F)(F)F)nn23)sc1C [Compound 588] | – | – | – | – | TAMRA EC1.5 [3]: B (EC1.5 1-25 μM); Emax [4]: < 350%
35 | O=C(Nc1ccc(N2CCOCC2)nc1)c1cnc2ccc(-c3ccccc3C(F)(F)F)nn12 [Compound 216] | – | – | B (EC1.5 1-25 μM) | ≥ 350 | –
36 | Cc1cc2ncc(NC(=O)c3cccc(N4CCOCC4)n3)n2nc1-c1ccccc1C(F)(F)F [Compound 435] | – | – | – | – | TAMRA EC1.5 [3]: A (EC1.5<1 μM); Emax [4]: ≥ 350%
37 | Cc1nc2c(C)cc(-c3ccccc3C(F)(F)F)nn2c1C(=O)Nc1cncc(OC[C@H](O)CO)n1 [Compound 468] | – | – | – | – | TAMRA EC1.5 [3]: A (EC1.5<1 μM); Emax [4]: ≥ 350%
38 | O=C(Nc1cnc2ccc(-c3ccccc3C(F)(F)F)nn12)c1cccc(CN2CCCC2)n1 [Compound 145] | A (EC1.5<1 μM) | ≥ 350 | – | – | –
39 | Cc1cc(NC(=O)c2cnc3ccc(-c4ccccc4C(F)(F)F)nn23)cc(C)n1 [Compound 99] | A (EC1.5<1 μM) | ≥ 350 | – | – | –
40 | Cc1nc2ccc(-c3ccccc3OC(F)(F)F)nn2c1C(=O)Nc1ccncc1 [Compound 497] | – | – | – | – | TAMRA EC1.5 [3]: A (EC1.5<1 μM); Emax [4]: ≥ 350%
41 | O=C(Nc1cnc2ccc(-c3ccccc3C(F)(F)F)nn12)c1cccc(N2CCOCC2)n1 [Compound 82] | A (EC1.5<1 μM) | ≥ 350 | – | – | –
42 | O=C(Nc1cnc2ccc(-c3ccccc3Cl)nn12)c1cnccn1 [Compound 288] | – | – | B (EC1.5 1-25 μM) | < 350 | –
43 | O=C(Nc1ncc(F)cc1F)c1cnc2ccc(-c3ccccc3C(F)(F)F)nn12 [Compound 111] | B (EC1.5 1-25 μM) | < 350 | – | – | –
44 | O=C(Nc1ccccn1)c1cnc2ccc(-c3ccccc3Cl)nn12 [Compound 117] | B (EC1.5 1-25 μM) | < 350 | – | – | –
45 | O=C(Nc1ncco1)c1cnc2ccc(-c3ccccc3C(F)(F)F)nn12 [Compound 114] | B (EC1.5 1-25 μM) | < 350 | – | – | –
46 | O=C(Nc1nccs1)c1cnc2ccc(-c3cccc(N4CCOCC4)c3)nn12 [Compound 9] | C (EC1.5>25 μM) | < 350 | – | – | –
47 | O=C(Nc1cccc(CN2CCOCC2)n1)c1cnc2ccc(-c3c(F)cccc3Cl)nn12 [Compound 160] | B (EC1.5 1-25 μM) | ≥ 350 | – | – | –
48 | Cc1cc(C)nc(NC(=O)c2cnn3ccc(-c4ccccc4C(F)(F)F)nc23)c1 [Compound 502] | – | – | – | – | TAMRA EC1.5 [3]: A (EC1.5<1 μM); Emax [4]: ≥ 350%
49 | O=C(Nc1cccc(CN2CCOCC2)n1)c1cnc2ccc(-c3ccccc3C(F)(F)F)nn12 [Compound 19, N-(6-(morpholinomethyl)pyridin-2-yl)-6-(2-(trifluoromethyl)phenyl)imidazo[1,2-b]pyridazine-3-carboxamide] | A (EC1.5<1 μM) | ≥ 350 | – | – | –
